Converted amounts (≈) assume the structure as drawn.
Key:
[1] = system: Staphylococcus aureus; experiment: Antibacterial activity against Staphylococcus aureus […] incubated for 16 hrs by agar dilution method; assay type: functional
[2] = system: Staphylococcus aureus; experiment: Antibacterial activity against methicillin-sensitive Staphylococcus aureus incubated for 16 hrs by agar dilution method; assay type: functional
[3] = system: Staphylococcus epidermidis; experiment: Antibacterial activity against methicillin-sensitive Staphylococcus epidermidis incubated for 16 hrs by agar dilution method; assay type: functional
[4] = system: Streptococcus pneumoniae; experiment: Antibacterial activity against penicillin-resistant Streptococcus pneumoniae incubated for 16 hrs by agar dilution method; assay type: functional
[5] = system: Enterococcus faecalis; experiment: Antibacterial activity against Enterococcus faecalis incubated for 16 hrs by agar dilution method; assay type: functional
[6] = system: Staphylococcus aureus; experiment: Antibacterial activity against methicillin-resistant Staphylococcus aureus incubated for 16 hrs by agar dilution method; assay type: functional
[7] = system: Staphylococcus epidermidis; experiment: Antibacterial activity against methicillin-resistant Staphylococcus epidermidis incubated for 16 hrs by agar dilution method; assay type: functional
[8] = Half life in Sprague-Dawley rat liver microsomes at 0.1 uM in presence of NADPH by LC/MS/MS method; assay type: ADME
[9] = Half life in human liver microsomes at 0.1 uM in presence of NADPH by LC/MS/MS method; assay type: ADME
[10] = system: Liver microsome; experiment: Intrinsic clearance in Sprague-Dawley rat liver microsomes assessed per mg protein at 0.1 uM incubated for 7 to 60 mins in presence of NADPH by LC/MS/MS method; assay type: ADME; design: unit not given here
[11] = system: Liver microsome; experiment: Intrinsic clearance in human liver microsomes assessed per mg protein at 0.1 uM incubated for 7 to 60 mins in presence of NADPH by LC/MS/MS method; assay type: ADME; design: unit not given here

SMILES | MIC [1] | MIC [2] | MIC [3] | MIC [4] | MIC [5] | MIC [6] | MIC [7] | half-life at 0.1 µM [8] | half-life at 0.1 µM [9] | CLH [10] | CLH [11]
CC(=O)NCC1OC(=O)N2c3ccc(-c4ccc(N5CCOC5=O)nc4)cc3N(C(=O)OC(C)(C)C)CC12 (configuration not stated) | > 16 µg/mL | > 16 µg/mL | > 16 µg/mL | > 16 µg/mL | > 16 µg/mL |  |  |  |  |  | 
CC(=O)NC[C@@H]1OC(=O)N2c3ccc(-c4ccc(C5(C#N)CC5)nc4)cc3SC[C@@H]12 | 4 µg/mL (≈ 9.51 µM) | 4 µg/mL (≈ 9.51 µM) | 2 µg/mL (≈ 4.76 µM) | 2 µg/mL (≈ 4.76 µM) | 4 µg/mL (≈ 9.51 µM) | 2 µg/mL (≈ 4.76 µM) | 2 µg/mL (≈ 4.76 µM) |  |  |  | 
CC(=O)NC[C@@H]1OC(=O)N2c3ccc(-c4ccc(F)nc4)cc3SC[C@@H]12 | 4 µg/mL (≈ 10.7 µM) | 4 µg/mL (≈ 10.7 µM) | 2 µg/mL (≈ 5.36 µM) | 2 µg/mL (≈ 5.36 µM) | 4 µg/mL (≈ 10.7 µM) | 2 µg/mL (≈ 5.36 µM) | 2 µg/mL (≈ 5.36 µM) |  |  |  | 
CC(C)(C)OC(=O)N1CC2C(CO)OC(=O)N2c2ccc(-c3ccc(C4(C#N)CC4)nc3)cc21 (configuration not stated) | > 16 µg/mL | > 16 µg/mL | > 16 µg/mL | > 16 µg/mL | > 16 µg/mL |  |  |  |  |  | 
CN1C[C@H](c2ccc(-c3ccc4c(c3)OC[C@H]3[C@H](CO)OC(=O)N43)cn2)OC1=O | 0.5 µg/mL (≈ 1.26 µM) | 0.5 µg/mL (≈ 1.26 µM) | 0.25 µg/mL (≈ 0.629 µM) | 1 µg/mL (≈ 2.52 µM) | 1 µg/mL (≈ 2.52 µM) | 0.5 µg/mL (≈ 1.26 µM) | 0.25 µg/mL (≈ 0.629 µM) | 16.7 h | 68.8 h |  | 
N#Cc1ccc(-c2ccc3c(c2)OC[C@H]2[C@H](CO)SC(=O)N32)cn1 | > 16 µg/mL | > 16 µg/mL | > 16 µg/mL | > 16 µg/mL | > 16 µg/mL |  |  |  |  |  | 
CC(=S)NC[C@@H]1OC(=O)N2c3ccc(-c4ccc(F)nc4)cc3SC[C@@H]12 | 8 µg/mL (≈ 20.5 µM) | 8 µg/mL (≈ 20.5 µM) | 2 µg/mL (≈ 5.14 µM) | 1 µg/mL (≈ 2.57 µM) | 2 µg/mL (≈ 5.14 µM) | 2 µg/mL (≈ 5.14 µM) | 1 µg/mL (≈ 2.57 µM) |  |  |  | 
N#CC1(c2ccc(-c3ccc4c(c3)NCC3C(CO)OC(=O)N43)cn2)CC1 (configuration not stated) | > 16 µg/mL | > 16 µg/mL | > 16 µg/mL | > 16 µg/mL | > 16 µg/mL |  |  |  |  |  | 
CC(=S)NC[C@@H]1OC(=O)N2c3ccc(-c4ccc(N5CCOC5=O)nc4)cc3SC[C@@H]12 | 2 µg/mL (≈ 4.38 µM) | 2 µg/mL (≈ 4.38 µM) | 1 µg/mL (≈ 2.19 µM) | 1 µg/mL (≈ 2.19 µM) | 1 µg/mL (≈ 2.19 µM) | 1 µg/mL (≈ 2.19 µM) | 1 µg/mL (≈ 2.19 µM) | 0.35 h | 0.55 h | 99.6 | 63.4
CN1CC(c2ccc(-c3ccc4c(c3)OC[C@H]3[C@H](CO)SC(=O)N43)cn2)OC1=O (single isomer, unassigned) | > 16 µg/mL | > 16 µg/mL | > 16 µg/mL | > 16 µg/mL | > 16 µg/mL |  |  |  |  |  | 
CC(=O)NC[C@H]1CN(c2ccc(N3CCOCC3)c(F)c2)C(=O)O1 [LINEZOLID] |  |  | 2 µg/mL (≈ 5.93 µM) |  |  | 1 µg/mL (≈ 2.96 µM) | 2 µg/mL (≈ 5.93 µM) |  |  |  | 
COc1ccc(-c2ccc3c(c2)SC[C@H]2[C@H](CNC(C)=O)OC(=O)N32)cn1 | 8 µg/mL (≈ 20.8 µM) | 8 µg/mL (≈ 20.8 µM) | 4 µg/mL (≈ 10.4 µM) | 4 µg/mL (≈ 10.4 µM) | 8 µg/mL (≈ 20.8 µM) | 4 µg/mL (≈ 10.4 µM) | 4 µg/mL (≈ 10.4 µM) |  |  |  | 
O=C1OCCN1c1ccc(-c2ccc3c(c2)SC[C@H]2[C@H](CO)OC(=O)N32)cn1 | > 16 µg/mL | > 16 µg/mL | > 16 µg/mL | > 16 µg/mL | > 16 µg/mL |  |  |  |  |  | 
CC(=O)NC[C@@H]1OC(=O)N2c3ccc(-c4ccc(C#N)nc4)cc3SC[C@@H]12 | 8 µg/mL (≈ 21 µM) | 4 µg/mL (≈ 10.5 µM) | 4 µg/mL (≈ 10.5 µM) | 2 µg/mL (≈ 5.26 µM) | 2 µg/mL (≈ 5.26 µM) | 4 µg/mL (≈ 10.5 µM) | 4 µg/mL (≈ 10.5 µM) |  |  |  | 
N#Cc1ccc(-c2ccc3c(c2)SC[C@H]2[C@H](CO)OC(=O)N32)cn1 | > 16 µg/mL | > 16 µg/mL | > 16 µg/mL | > 16 µg/mL | > 16 µg/mL |  |  |  |  |  | 
CC(=O)NC[C@@H]1OC(=O)N2c3ccc(-c4ccc(N5CCOC5=O)nc4)cc3S(=O)(=O)C[C@@H]12 | > 16 µg/mL | > 16 µg/mL | > 16 µg/mL | > 16 µg/mL | > 16 µg/mL |  |  |  |  |  | 
CC(=O)NC[C@@H]1OC(=O)N2c3ccc(-c4ccc(N5CCOC5=O)nc4)cc3[S+]([O-])C[C@@H]12 (some centres not stated) | > 16 µg/mL | > 16 µg/mL | > 16 µg/mL | > 16 µg/mL | > 16 µg/mL |  |  |  |  |  | 
CC(=O)NC[C@@H]1OC(=O)N2c3ccc(-c4ccc(C5CN(C)C(=O)O5)nc4)cc3SC[C@@H]12 (single isomer, unassigned) | 4 µg/mL (≈ 8.8 µM) | 4 µg/mL (≈ 8.8 µM) | 2 µg/mL (≈ 4.4 µM) | 2 µg/mL (≈ 4.4 µM) | 4 µg/mL (≈ 8.8 µM) | 2 µg/mL (≈ 4.4 µM) | 2 µg/mL (≈ 4.4 µM) | 3.85 h |  | 9.08 | 0
CC(=O)NCC1OC(=O)N2c3ccc(-c4ccc(N5CCOC5=O)nc4)cc3NCC12 (configuration not stated) | 16 µg/mL (≈ 37.8 µM) | 16 µg/mL (≈ 37.8 µM) | 16 µg/mL (≈ 37.8 µM) | 4 µg/mL (≈ 9.45 µM) | 16 µg/mL (≈ 37.8 µM) | > 4 µg/mL | > 2 µg/mL |  |  |  | 
CC(=O)NC[C@@H]1OC(=O)N2c3ccc(-c4ccc(C(C)=O)nc4)cc3SC[C@@H]12 | 8 µg/mL (≈ 20.1 µM) | 2 µg/mL (≈ 5.03 µM) | 2 µg/mL (≈ 5.03 µM) | 2 µg/mL (≈ 5.03 µM) | 4 µg/mL (≈ 10.1 µM) | 2 µg/mL (≈ 5.03 µM) | 2 µg/mL (≈ 5.03 µM) |  |  |  | 
CC(=O)NC[C@@H]1OC(=O)N2c3ccc(-c4ccc(N5CCOC5=O)nc4)cc3SC[C@@H]12 | 4 µg/mL (≈ 9.08 µM) | 4 µg/mL (≈ 9.08 µM) | 2 µg/mL (≈ 4.54 µM) | 1 µg/mL (≈ 2.27 µM) | 4 µg/mL (≈ 9.08 µM) | 2 µg/mL (≈ 4.54 µM) | 2 µg/mL (≈ 4.54 µM) | 6.13 h | 10.1 h | 5.71 | 3.47
CC(=S)NC[C@@H]1OC(=O)N2c3ccc(-c4ccc(C#N)nc4)cc3SC[C@@H]12 | 8 µg/mL (≈ 20.2 µM) | 8 µg/mL (≈ 20.2 µM) | 4 µg/mL (≈ 10.1 µM) | 4 µg/mL (≈ 10.1 µM) | > 16 µg/mL | 4 µg/mL (≈ 10.1 µM) | 4 µg/mL (≈ 10.1 µM) |  |  |  | 
O=C1OCCN1c1ccc(-c2ccc3c(c2)OC[C@H]2[C@H](CO)SC(=O)N32)cn1 | > 16 µg/mL | > 16 µg/mL | > 16 µg/mL | > 16 µg/mL | > 16 µg/mL |  |  |  |  |  | 
N#CC1(c2ccc(-c3ccc4c(c3)SC[C@H]3[C@H](CO)OC(=O)N43)cn2)CC1 | > 16 µg/mL | > 16 µg/mL | > 16 µg/mL | > 16 µg/mL | > 16 µg/mL |  |  |  |  |  | 
COc1ccc(-c2ccc3c(c2)SC[C@H]2[C@H](CNC(C)=S)OC(=O)N32)cn1 | 4 µg/mL (≈ 9.96 µM) | 4 µg/mL (≈ 9.96 µM) | 4 µg/mL (≈ 9.96 µM) | 2 µg/mL (≈ 4.98 µM) | 8 µg/mL (≈ 19.9 µM) | 4 µg/mL (≈ 9.96 µM) | 4 µg/mL (≈ 9.96 µM) |  |  |  | 

— ChEMBL document CHEMBL3400146, “Synthesis and structure-activity relationship studies of novel [6,6,5] tricyclic oxazolidinone derivatives as potential antibacterial agents” (Bioorg Med Chem Lett, 2015)
